The values below come from paper PMC3431965 (The Journal of organic chemistry, 2012).

Each structure is given as a SMILES string.

Assay [1] addresses α-glucosidase (Saccharomyces cerevisiae). Kind of assay: Glycosidase inhibition assay, α-glucosidase. Format: biochemical. As to conditions: read-out: α-Glc IC50; substrate at Km.
In the next assay the test system is spermatogenesis. To be noted: C57B1/6J-related mouse strains; cited from earlier work.
Another assay relates to human spermatogenesis. As to conditions: cited from earlier work.

As to `CCCCN1C[C@H](O)[C@@H](O)[C@H](O)[C@H]1CO` [NB-DNJ, N-butyldeoxynojirimycin], the IC50 in assay [1] came out at 1030 µM. Besides, the effect on spermatogenesis result with spermatogenesis is on record as “active”. Moreover, the “effects on human spermatogenesis” value in the assay with human spermatogenesis is reported as “no discernible effects”.
